Legend:
Type in all cases: in vivo
[1] = tested on: male C57BL/6J mice fed a high fat Western Diet, with or without streptozotocin; assay: Acute Glucose Lowering Study (tail-vein blood glucose over 5 hours after a single dose); details: for average change in blood glucose measurement: 100 mg/kg, N=10
Text: The studies reported below dosed male C57BL/6J mice with an EP3 antagonist, GW671021B, and monitored the effects on glucose homeostasis by measuring tail-vein blood glucose. The animals were either (a) fed a high fat diet to induce mild insulin resistance, or (b) were fed the high fat diet and also treated with a low dose of streptozotocin (which damages the pancreatic beta-cells) resulting in both insulin resistance and insulin deficiency (as in T2DM patients).
Materials and Methods: Male 6 week old C57BL/6J mice (Jackson Laboratory, Bar Harbor Me.) were made mildly insulin resistant by feeding a high fat Western Diet (WD) (Research Diets, D12079B) for 3 weeks. Test mice were then made insulin deficient by intraperitoneal injection (IP) with 100 mg/kg Streptozotocin (STZ or streptozocin; Zanosar®, Sicor Pharmaceuticals, Irvine, Calif.) reconstituted in citric acid. Control mice (also on the WD) were injected with the same volume and concentration of citric acid without the STZ. Two weeks after the STZ (or control citric acid) injections the mice received injections of either GW021 in vehicle, or vehicle alone (as described below). Student's t-test or Tukey's HSD (Honestly Significant Different) test was used to determine the significance of the results.
Acute Glucose Lowering Study: At 6:30 am mice were transferred to clean cages with water in the procedure room and allowed to acclimate for 1 hour. After acclimation, a small snip was made at the tip of the tail for blood collection and baseline glucose measurements were collected using the Bayer Elite XL glucometer. Mice were dosed with either compound GW671021B (100 mg/kg body weight) in a suspension in 0.5% HPMC, 0.1% Tween 80; or dosed with Vehicle only (HPMC, 0.1% Tween 80). Whole blood for glucose measurement was collected at 0.5, 1, 2, 3, 4, and 5 hours after dosing. […] There were 10 mice in each treatment group.
Data represent an average blood glucose measurement (mg/dL) of the 10 mice in each treatment group at each time point.

[2] = tested on: C57BL/6J mice fed a high fat diet (Western Diet) and treated with streptozocin; assay: 14 Day Chronic Study (glucose after 1st, 15th and 27th dose); details: 0, 7 and 13 days of treatment, twice daily dosing, compared to STZ treated mice without compound
Procedure: A 14 day chronic study in C57BL/6J mice was performed. The animals were fed a high fat diet (Western Diet) and treated with a low dose of streptozocin (which damages the pancreatic beta-cells) resulting in both insulin resistance and insulin deficiency (as in T2DM patients). Mice were prepared as generally described above in Example 2. Two weeks after injection of streptozocin, a twice daily dosing schedule was started with: • 1. GW67021B (10 mg/kg, 30 mg/kg, or 100 mg/kg); or • 2. CB-1 (Rimonabant, antagonist of the CB-1 receptor; commonly used as a positive control for weight-loss inducing drugs) at 5 mg/kg; or • 3. GW34784 (PPAR gamma agonist compound as another positive control) at 3 mg/kg (also referred to as GW845 or GW7845))
All compounds were dosed in suspension in 0.5% HPMC; 0.1% Tween 80 by body weight. The same general procedures used in the acute study (Example 2) were utilized in this chronic study. Glucose was measured following the 1st, 15th and 27th dose (day 0, 7, and 13) at 0, 1, 2, 3, 4, and 5 hour time points. Results are graphed in FIGS. 3a-3c for the groups of mice receiving WD+Streptozocin+Vehicle (no compound); WD+Streptozocin+GW021 10 mg/kg; WD+Streptozocin+GW021 30 mg/kg; WD+Streptozocin+GW021 100 mg/kg; WD+Streptozocin+GW845 3 mg/kg; WD+Streptozocin+CB-1 5 mg/kg.

[3] = tested on: streptozocin-treated mice fed a high-fat Western Diet; assay: Final Glucose Measurement on the 14th day (after 28th dose); details: compared to mice not treated with compound (FIG. 4)
Procedure: Groups of mice were maintained on diet and dosing schedules as described, and on the 14th day were moved to the procedure room, dosed with a final 28th dose (of compound or vehicle only, according to their group as shown in FIG. 4), then acclimated for about 1 hour with access to food and water before bleeding to measure blood glucose.
In FIG. 4 the first […] bars (from left to right) represent mice that were treated with STZ and vehicle only; STZ and GW021B 10 mg/kg; STZ and GW021 B 30 mg/kg; STZ and GW021 B 100 mg/kg; STZ and GW845 3 mg/kg. The seventh bar represents mice that were not treated with STZ (citric acid control) and were not treated with any compound (Vehicle only). “Vehicle” mice were dosed with HPMC/Tween only (no GW021, CB-1 or GW 845). Each bar represents an average of a single blood draw taken on day 14 from each of the ten mice in a group.

SMILES: COc1ccc(Br)cc1S(=O)(=O)[N-]C(=O)/C=C/c1ccccc1Cc1ccc2ccccc2c1.[Na+] [GW021B]
- average change in blood glucose measurement ([1]; WD + STZ mice, 0 hrs (baseline)): 0 mg/dL
- average change in blood glucose measurement ([1]; WD + STZ mice, 0.5 hrs after dosing): -16 mg/dL
- average change in blood glucose measurement ([1]; WD + STZ mice, 1 hr after dosing): -46 mg/dL
- average change in blood glucose measurement ([1]; WD + STZ mice, 2 hrs after dosing): -59 mg/dL
- average change in blood glucose measurement ([1]; WD + STZ mice, 3 hrs after dosing): -66 mg/dL
- average change in blood glucose measurement ([1]; WD + STZ mice, 4 hrs after dosing): -83 mg/dL
- average change in blood glucose measurement ([1]; WD + STZ mice, 5 hrs after dosing): -79 mg/dL
- average change in blood glucose measurement ([1]; WD + citric acid mice (no STZ), 0 hrs (baseline)): 0 mg/dL
- average change in blood glucose measurement ([1]; WD + citric acid mice (no STZ), 0.5 hrs after dosing): -14 mg/dL
- average change in blood glucose measurement ([1]; WD + citric acid mice (no STZ), 1 hr after dosing): -14 mg/dL
- average change in blood glucose measurement ([1]; WD + citric acid mice (no STZ), 2 hrs after dosing): -9 mg/dL
- average change in blood glucose measurement ([1]; WD + citric acid mice (no STZ), 3 hrs after dosing): -18 mg/dL
- average change in blood glucose measurement ([1]; WD + citric acid mice (no STZ), 4 hrs after dosing): -37 mg/dL
- average change in blood glucose measurement ([1]; WD + citric acid mice (no STZ), 5 hrs after dosing): -37 mg/dL
- effect on blood glucose (change compared to baseline), in words ([1]; streptozocin-treated C57BL/6J mice fed high-fat Western Diet, 5 hour time course): blood glucose lowering effect
- effect on glucose (change compared to baseline), in words [2]: continued to have glucose lowering effects
- blood glucose level on the fourteenth day of treatment, in words [3]: lower blood glucose levels

Source: patent US20080200568A1, “Genes Associated With Type ll Diabetes Mellitus” (priority 2005, published 2008)
